Laboratory results published in publication PMC5903829 (Experimental & Molecular Medicine, 2018).

Test system: Caco-2 cells
Assay: Trans-epithelial electrical resistance in Caco-2 monolayers
Type: cell-based, human
Settings: compound C 30 min pre-treatment, then LPS or LPS+AmEV

SMILES: c1cc(-c2cnn3cc(-c4ccc(OCCN5CCCCC5)cc4)cnc23)ccn1 [compound C]
- AmEVs' ability to improve LPS-induced loss of barrier integrity (TEER) in the presence of AMPK inhibitor: abolished
